In US9029377B2, “Platelet-activating factor receptor antagonists” (Merck Sharp & Dohme Corp., priority 2009, dated 2015):

The compounds below were run against PAFR (Homo sapiens, UniProt P25105) (assay: PAF Binding Assay (PAFR binding)).
Sequence of PAFR (P25105 whole entry): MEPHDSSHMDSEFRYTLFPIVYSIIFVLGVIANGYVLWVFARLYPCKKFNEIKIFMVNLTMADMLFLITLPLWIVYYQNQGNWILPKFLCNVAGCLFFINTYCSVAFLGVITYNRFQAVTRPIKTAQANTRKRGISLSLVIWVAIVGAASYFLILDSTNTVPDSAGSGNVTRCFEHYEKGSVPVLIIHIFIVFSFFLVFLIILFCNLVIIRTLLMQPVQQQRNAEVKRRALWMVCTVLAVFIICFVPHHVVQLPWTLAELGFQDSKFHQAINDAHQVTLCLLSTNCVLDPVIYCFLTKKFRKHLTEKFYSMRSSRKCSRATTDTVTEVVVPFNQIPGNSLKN
`COc1ncccc1-c1cc(OC(F)(F)F)cc(S(=O)(=O)N[C@H]2CCC[C@@H](n3cnnc3)C2)c1` [Compound 3Eb, 3-(2-methoxypyridin-3-yl)-N-[(1S,3R)-3-(4H-1,2,4-triazol-4-yl)cyclohexyl]-5-(trifluoromethoxy)benzenesulfonamide] was tested, and the IC50 was 0.013 µM. Work on `O=S(=O)(N[C@H]1CCC[C@@H](n2cnnc2)C1)c1cc(F)cc(-c2ccccc2)c1` [Compound 3Fa, 5-fluoro-N-[(1S,3R)-3-(4H-1,2,4-triazol-4-yl)cyclohexyl]biphenyl-3-sulfonamide] yielded an IC50 of 0.01 µM. With `COc1ncccc1-c1cc(F)cc(S(=O)(=O)N[C@H]2CCC[C@@H](n3cnnc3)C2)c1` [Compound 3Fb, 3-fluoro-5-(2-methoxypyridin-3-yl)-N-[(1S,3R)-3-(4H-1,2,4-triazol-4-yl)cyclohexyl]benzenesulfonamide] the IC50 was 0.009 µM. `O=S(=O)(N[C@H]1CCC[C@@H](n2cnnc2)C1)c1cc(F)cc(-c2cccc3cccnc23)c1` [Compound 3Fc, 3-fluoro-5-quinolin-8-yl-N-[(1S,3R)-3-(4H-1,2,4-triazol-4-yl)cyclohexyl]benzenesulfonamide] gave an IC50 of 0.001 µM. `O=S(=O)(N[C@H]1CCC[C@@H](n2cnnc2)C1)c1cc(-c2cccn3cnnc23)cc(C(F)(F)F)c1` [Compound 3d] was tested, and the IC50 was 0.0031 µM. `CCc1cc(-n2cnnc2C)ccc1S(=O)(=O)N[C@H]1CCC[C@@H](n2cnnc2)C1` [Compound 4b, 2-ethyl-4-(3-methyl-4H-1,2,4-triazol-4-yl)-N-[(1S,3R)-3-(4H-1,2,4-triazol-4-yl)cyclohexyl]benzenesulfonamide] was tested, and the IC50 was 9.8 µM. Work on `CCc1cc(-n2cnnn2)ccc1S(=O)(=O)N[C@H]1CCC[C@@H](n2cnnc2)C1` [Compound 5a, 2-ethyl-4-(1H-tetrazol-1-yl)-N-[(1S,3R)-3-(4H-1,2,4-triazol-4-yl)cyclohexyl]benzenesulfonamide] yielded an IC50 of 0.815 µM. `CCc1cc(-n2cccn2)ccc1S(=O)(=O)N[C@H]1CCC[C@@H](n2cnnc2)C1` [Compound 6a, 2-ethyl-4-(1H-pyrazol-1-yl)-N-[(1S,3R)-3-(4H-1,2,4-triazol-4-yl)cyclohexyl]benzenesulfonamide] showed an IC50 of 0.068 µM. `CCc1cc(-n2cc(C)cn2)ccc1S(=O)(=O)N[C@H]1CCC[C@@H](n2cnnc2)C1` [Compound 6b, 2-ethyl-4-(4-methyl-1H-pyrazol-1-yl)-N-[(1S,3R)-3-(4H-1,2,4-triazol-4-yl)cyclohexyl]benzenesulfonamide] gave an IC50 of 0.025 µM. `Cc1nnc(C)n1[C@@H]1CCC[C@H](NS(=O)(=O)c2c(C(C)C)cc(C(C)C)cc2C(C)C)C1` [Compound 7d, N-[(1S,3R)-3-(3,5-dimethyl-4H-1,2,4-triazol-4-yl)cyclohexyl]-2,4,6-triisopropylbenzenesulfonamide] showed an IC50 of 0.0098 µM. `Cc1nncn1[C@H]1C[C@@H](NS(=O)(=O)c2cc(-c3ccn[nH]3)cc(C(F)(F)F)c2)CC(F)(F)C1` [Compound 9Ae] was tested, and the IC50 was 0.018 µM. Compound `O=S(=O)(N[C@H]1CCC[C@@H](n2cnnc2)C1)c1cc(-c2ccnc3ccnn23)cc(C(F)(F)F)c1` [Compound 9c, 3-pyrazolo[1,5-a]pyrimidin-7-yl-N-[(1S,3R)-3-(4H-1,2,4-triazol-4-yl)cyclohexyl]-5-(trifluoromethyl)benzenesulfonamide] has an IC50 of 0.0059 µM.
